One data set deals with T1, p38 MAPK/ATF2 (Homo sapiens, UniProt Q16539).
T1 construct: purchased Carna Biosciences (p38α); Sino Biological (ATF2) 04-152; 11599-H20B
Nature of the data set: In vitro activity assay of p38 MAPK/ATF2 (HTRF). The settings on record: p38α, Human ATF2 Protein, ATP; 35 min at 20° C. In kind it is biochemical. How it is done:
The inhibitory effect of the compound on p38a-catalyzed ATF2 was evaluated by the HTRF method. The test compound was dissolved in DMSO to obtain a 10 mM stock solution and stored at −20° C. for future use. The initial concentration of the compound was 10 μM, with 0.25% DMSO, 5-fold serial dilution, 8 concentrations, and duplicate wells. The reaction buffer, consisting of 40 mM Tris pH 7.5, 20 mM MgCl2, 0.1 mg/mL BSA, and 50 μM DTT, was used to prepare 3.5×p38α (MAPK14, Carna Biosciences, 04-152) protein working solution, 3.5×Human ATF2 Protein (Sino Biological, 11599-H20B) working solution, and 3.5×ATP working solution. The reaction was terminated with 10 mM EDTA. The final 14 μL reaction system was performed in a 96-well plate (cisbio, 66PL96025), containing 0.29 ng/μL p38a, […] Human ATF2 Protein, and 25 µM ATP. After reacting at 20° C. for 35 min, the pre-prepared antibody solution (cibio, 63ADK015PEG, Phospho-ATF2 Eu Cryptate antibody, Phospho-ATF2 d2 antibody, diluted 40-fold with Detection buffer) was added to each well and incubated overnight at room temperature. The samples were then measured using a microplate reader (HTRF compatible reader). The concentration-effect curve was fitted using GraphPad Prism 8 software, and the compound concentration resulting in 50% inhibition, IC50, was calculated.

Another data set has as its target T2, p38 MAPK/MK5 (Homo sapiens, UniProt Q16539).
T2 construct: purchased Carna (p38α); Abcam (MK5) 04-152; 217826
The experiment in a line: In vitro activity assay of p38 MAPK/MK5 (Z-LYTE kinase assay kit). In kind it is biochemical. The settings on record: active p38α, inactive MK5, Ser/Thr 4; 4-hour reaction at 20° C. As for the experimental part: The inhibitory effect of the compound on p38 MAPK/MK5 was evaluated using the Z-LYTE kinase assay kit (Thermo, PV3177). The test compound was dissolved in DMSO to obtain a 10 mM stock solution and stored at −20° C. for future use. The initial concentration of the compound was […], with 1% DMSO, 5-fold serial dilution, 8 concentrations, and duplicate wells. […] After a 4-hour reaction at 20° C., Development Reagent A diluted 2048-fold was added to each well, followed by incubation at room temperature for 1 hour. The reaction was terminated by adding 5 µL of stop buffer, and the plate was read using a microplate reader (Ex. 400 nm, Em. 445 nm; Ex. 400 nm, Em. 520 nm). The concentration-effect curve was fitted using GraphPad Prism 8 software, and the compound concentration resulting in 50% inhibition, IC50, was calculated.

Data set [1] is described as follows: In vitro liver microsome stability, mouse. In kind it is in vitro ADME. The settings on record: liver microsomes, 0.5 mg/mL microsomes, 1 μM compound, NADPH, 37° C., read-out: Mouse liver microsomes Half-life T1/2. How it is done: (§1) The reference compound used in this experiment was Ketanserin, and the final concentration of microsomes in the experimental system was 0.5 mg/mL. The PBS buffer was a 50 mM K2HPO4 buffer. The concentration of the test compound was 1 μM. The microsomes were added to PBS, and the control/test compounds were respectively added to the corresponding reaction systems, mixed thoroughly, and pre-incubated in a 37° C. water bath for 5 minutes. The reaction was initiated by adding 20 mM NADPH solution under 37° C. water bath conditions (for the No NADPH samples, an equal volume of PBS solution was used as a substitute for the 20 mM NADPH solution). At the reaction time points of 0 min, 10 min, 30 mun, 60 min, and 90 min, 30 μL of reaction samples were taken from each reaction system (for the No NADPH samples, sampling was performed at 0 min and 90 min), and the reaction was immediately terminated by adding 300 μL of the internal standard acetonitrile solution. After centrifugation at 4000 rpm, the supernatant was taken and mixed thoroughly with an equal volume of pure water. The samples at each time point were analyzed by LC-MS/MS (AB Triple Quard 5500) to determine the compound content, and the T1/2 was calculated.
For orientation: Liver microsomes are a subcellular fraction often used to study metabolism.

The target of the next data set is T3, p38 MAPK/MK2 (Homo sapiens, UniProt Q16539).
T3 construct: purchased Carna (p38α); Abcam (MK2) 04-152; 79910
The experiment in a line: In vitro activity assay of p38 MAPK/MK2 (Z-LYTE kinase assay kit). In kind it is biochemical. The settings on record: active p38α, inactive MK2, Ser/Thr 4; 1-hour reaction at 20° C. The method, boiled down:
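FRET-based Z-LYTE assay; compound tested from […] top concentration, 5-fold serial dilution, 8 points, duplicate wells, 1% DMSO. Kinase reaction 1 h at 20° C, then development reagent 1 h at room temperature; fluorescence read at Ex 400/Em 445 and 520 nm. IC50 from concentration-effect curve fit.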

The subject of data set [2] is TNF-α in human PBMC cells. Nature of the data set: In vitro TNF-α activity assay in human PBMC cell supernatant (LPS, ELISA). In kind it is cell-based. The following applies: Homo sapiens, PBMC, 24 h, LPS 100 ng/mL, read-out: p38 MAPK/TNF-α IC50. As for the experimental part: The inhibitory effect of the compound on TNF-α in the supernatant of human PBMC cells was evaluated using an ELISA detection kit (Beyotime, PI518). The test compound was dissolved in DMSO to obtain a 10 mM stock solution and stored at −20° C. for future use. The initial concentration of the compound was […], followed by 5-fold serial dilution to obtain 6 concentrations. Cells were plated in duplicate, and ELISA was performed in single wells. The final concentration of DMSO was 0.4%. Alternatively, the initial concentration of the compound, dilution factor, number of concentration gradients, and replicates could be adjusted based on the specific screening conditions.
Fresh human peripheral blood mononuclear cells (PBMCs) (Sailybio) were seeded at a density of 2×10^5 cells per well in a 96-well plate (Corning, 3599), with each well containing 100 μL of RPMI-1640 (Gibco #A1049101)+10% FBS (Gibco, 10099141C), and incubated overnight at 37° C. under 5% CO2. Test compounds were added to the 96-well culture plate at a volume of 25 μL per well. After 1 hour, 5 μL of LPS was added to achieve a final concentration of 100 ng/mL. No LPS and compound were added to the negative control wells, and no compound was added to the positive control wells. The mixture was further incubated for 24 hours at 37° C. under 5% CO2. Subsequently, the cell culture supernatant was collected by centrifugation at 500 rcf for 8 minutes. The concentration of TNF-α was measured according to the operation manual of the ELISA kit. The concentration-effect curve was fitted using GraphPad Prism 8 software, and the compound concentration resulting in 50% inhibition, IC50, was calculated.
In general terms: ELISA stands for enzyme-linked immunosorbent assay.

Data set [3] is described as follows: In vitro liver microsome stability, rat. The format is in vitro ADME. The settings on record: liver microsomes, 0.5 mg/mL microsomes, 1 μM compound, NADPH, 37° C., read-out: Rat liver microsomes Half-life T1/2. As for the experimental part:
as §1

A short description of data set [4]: In vitro liver microsome stability, human. In kind it is in vitro ADME. The following applies: liver microsomes, 0.5 mg/mL microsomes, 1 μM compound, NADPH, 37° C., read-out: Human liver microsomes Half-life T1/2. How it is done:
as §1

T3 sequence (Q16539 whole entry): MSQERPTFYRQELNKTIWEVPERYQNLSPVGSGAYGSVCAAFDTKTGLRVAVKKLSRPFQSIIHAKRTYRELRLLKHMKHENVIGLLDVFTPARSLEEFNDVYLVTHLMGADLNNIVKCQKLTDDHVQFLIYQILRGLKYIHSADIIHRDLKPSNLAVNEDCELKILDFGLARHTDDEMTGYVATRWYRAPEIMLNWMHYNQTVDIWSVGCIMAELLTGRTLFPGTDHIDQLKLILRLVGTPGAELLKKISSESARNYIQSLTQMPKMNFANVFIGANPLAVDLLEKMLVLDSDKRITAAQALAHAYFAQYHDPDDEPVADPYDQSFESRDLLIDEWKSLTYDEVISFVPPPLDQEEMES
T3 sequence (P49137 whole entry partner): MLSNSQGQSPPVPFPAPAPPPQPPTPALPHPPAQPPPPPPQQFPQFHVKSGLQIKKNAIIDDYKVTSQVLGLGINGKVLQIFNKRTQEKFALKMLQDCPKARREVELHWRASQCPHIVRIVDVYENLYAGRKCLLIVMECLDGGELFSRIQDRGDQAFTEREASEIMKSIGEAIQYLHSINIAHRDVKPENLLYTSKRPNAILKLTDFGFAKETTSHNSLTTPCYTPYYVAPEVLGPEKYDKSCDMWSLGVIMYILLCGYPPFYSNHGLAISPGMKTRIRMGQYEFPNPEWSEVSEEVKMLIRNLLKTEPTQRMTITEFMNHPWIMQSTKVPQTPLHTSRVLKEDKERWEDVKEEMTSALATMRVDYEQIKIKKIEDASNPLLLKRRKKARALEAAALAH
T2 sequence (Q16539 whole entry): as the sequence (Q16539 whole entry) above

Regarding `Cc1cnc(-c2ccc(F)c([C@@](C)(O)CO)c2F)cc1-n1c(C)cc(OCc2ncc(F)cc2F)c(Cl)c1=O` (single isomer, unassigned) [Compound 65-P4], the IC50 against p38 MAPK/ATF2 is 4600 nM; against p38 MAPK/MK5, greater than 20000 nM; at p38 MAPK/MK2, 0.59 nM; in data set [2], 4.5 nM. Also, the half-life at 1 μM in data set [1], in data set [3] and in data set [4] was greater than 4.66 h in each case.
As to `CNC(=O)c1cccc(-c2cc(-n3c(C)cc(OCc4ncc(F)cc4F)c(Cl)c3=O)c(C)cn2)c1` [Compound 2], the IC50 against p38 MAPK/ATF2 amounted to 10300 nM; on p38 MAPK/MK5, 3050 nM; against p38 MAPK/MK2, 62.4 nM; in data set [2], 89 nM. Further, the values for the half-life at 1 μM in data set [1], in data set [3] and in data set [4] were 3.96 h, 4.17 h and 4.14 h, respectively.

(Values after US20260217652A1, “PHENYL-SUBSTITUTED HETEROARYL COMPOUND AND PHARMACEUTICAL COMPOSITION COMPRISING SAME, PREPARATION METHOD THEREFOR AND USE THEREOF” (SHANGHAI MEIYUE BIOTECH DEVELOPMENT CO., LTD., priority 2023, published 2026).)
